Species on record: Rattus norvegicus
Assay: DrugMatrix - Regimen: Daily Repeat
Assay type: toxicity, organism-based, Sprague-Dawley
Parameters: regimen Daily Repeat, gender Male, age 6-8 weeks
Details: in vivo, po, route oral GAVAGE, […]; for ABSOLUTE BASOPHIL / ABSOLUTE EOSINOPHIL / ABSOLUTE LYMPHOCYTE / ABSOLUTE SEGMENTED NEUTROPHIL / BASOPHIL / EOSINOPHIL / ERYTHROCYTE COUNT / HEMOGLOBIN / LEUKOCYTE COUNT / LYMPHOCYTE / MEAN CORPUSCULAR HEMOGLOBIN / MEAN CORPUSCULAR HEMOGLOBIN CONCENTRATION / MEAN CORPUSCULAR VOLUME / MONOCYTE / NEUTROPHIL / NUCLEATED RED BLOOD CELLS / PLATELET COUNT: tissue Blood; for ALANINE AMINOTRANSFERASE / ALBUMIN / ALKALINE PHOSPHATASE / ASPARTATE AMINOTRANSFERASE / BLOOD UREA NITROGEN / CARBON DIOXIDE / CHLORIDE / CHOLESTEROL / CREATINE PHOSPHOKINASE / CREATININE / GLUCOSE / LACTATE DEHYDROGENASE / LIPASE / PHOSPHORUS / POTASSIUM / SODIUM / TOTAL BILIRUBIN / URIC ACID: tissue Plasma
[1] = 20 mg/kg, 72 h, dose level Low, time 3 day
[2] = 20 mg/kg, 120 h, dose level Low, time 5 day
[3] = 600 mg/kg, 72 h, dose level High, time 3 day
[4] = 600 mg/kg, 120 h, dose level High, time 5 day

## CCCN(CCC)S(=O)(=O)c1ccc(C(=O)O)cc1 [PROBENECID]
[1]
  ABSOLUTE BASOPHIL: 0 CELLS/uL
  ABSOLUTE EOSINOPHIL: 143 CELLS/uL
  ABSOLUTE LYMPHOCYTE: 13997.67 CELLS/uL
  ABSOLUTE SEGMENTED NEUTROPHIL: 1155.67 CELLS/uL
  BASOPHIL: 0%
  EOSINOPHIL: 1%
  ERYTHROCYTE COUNT: 5.57 x10E6/uL
  HEMOGLOBIN: 13.7 G/DL
  LEUKOCYTE COUNT: 15.43 x10E3/uL
  LYMPHOCYTE: 90.33%
  MEAN CORPUSCULAR HEMOGLOBIN: 24.67 pg
  MEAN CORPUSCULAR HEMOGLOBIN CONCENTRATION: 39.3 G/DL
  MEAN CORPUSCULAR VOLUME: 62.8 fL
  MONOCYTE: 1%
  NEUTROPHIL: 7.67%
  NUCLEATED RED BLOOD CELLS: 0 /100WBC
  PLATELET COUNT: 1224.33 x10E3/uL
  ALANINE AMINOTRANSFERASE: 70 u/L
  ALBUMIN: 4 G/DL
  ALKALINE PHOSPHATASE: 531.67 u/L
  ASPARTATE AMINOTRANSFERASE: 87.67 u/L
  BLOOD UREA NITROGEN: 11 mg/dL
  CARBON DIOXIDE: 33.67 mmol/L
  CHLORIDE: 100.67 MEQ/L
  CHOLESTEROL: 81 mg/dL
  CREATINE PHOSPHOKINASE: 196.67 u/L
  CREATININE: 0.13 mg/dL
  GLUCOSE: 157.33 mg/dL
  LACTATE DEHYDROGENASE: 142.33 u/L
  LIPASE: 10.67 u/L
  PHOSPHORUS: 10.83 mg/dL
  POTASSIUM: 6.5 MEQ/L
  SODIUM: 141.87 MEQ/L
  TOTAL BILIRUBIN: 0.13 mg/dL
  URIC ACID: 1.4 mg/dL
[2]
  ABSOLUTE BASOPHIL: 0 CELLS/uL
  ABSOLUTE EOSINOPHIL: 118.67 CELLS/uL
  ABSOLUTE LYMPHOCYTE: 12848.33 CELLS/uL
  ABSOLUTE SEGMENTED NEUTROPHIL: 894.33 CELLS/uL
  BASOPHIL: 0%
  EOSINOPHIL: 0.67%
  ERYTHROCYTE COUNT: 5.43 x10E6/uL
  HEMOGLOBIN: 13.5 G/DL
  LEUKOCYTE COUNT: 14.13 x10E3/uL
  LYMPHOCYTE: 91%
  MEAN CORPUSCULAR HEMOGLOBIN: 25.03 pg
  MEAN CORPUSCULAR HEMOGLOBIN CONCENTRATION: 39.73 G/DL
  MEAN CORPUSCULAR VOLUME: 62.93 fL
  MONOCYTE: 2%
  NEUTROPHIL: 6.33%
  NUCLEATED RED BLOOD CELLS: 0 /100WBC
  PLATELET COUNT: 1072.33 x10E3/uL
  ALANINE AMINOTRANSFERASE: 70.67 u/L
  ALBUMIN: 3.97 G/DL
  ALKALINE PHOSPHATASE: 404.33 u/L
  ASPARTATE AMINOTRANSFERASE: 114.67 u/L
  BLOOD UREA NITROGEN: 13.67 mg/dL
  CARBON DIOXIDE: 29.67 mmol/L
  CHLORIDE: 102 MEQ/L
  CHOLESTEROL: 63.33 mg/dL
  CREATINE PHOSPHOKINASE: 910.33 u/L
  CREATININE: 0.19 mg/dL
  GLUCOSE: 178 mg/dL
  LACTATE DEHYDROGENASE: 364 u/L
  LIPASE: 10.33 u/L
  PHOSPHORUS: 11.13 mg/dL
  POTASSIUM: 6.49 MEQ/L
  SODIUM: 141.5 MEQ/L
  TOTAL BILIRUBIN: 0.23 mg/dL
  URIC ACID: 1.67 mg/dL
[3]
  ABSOLUTE BASOPHIL: 0 CELLS/uL
  ABSOLUTE EOSINOPHIL: 106 CELLS/uL
  ABSOLUTE LYMPHOCYTE: 14409.67 CELLS/uL
  ABSOLUTE SEGMENTED NEUTROPHIL: 2126 CELLS/uL
  BASOPHIL: 0%
  EOSINOPHIL: 0.67%
  ERYTHROCYTE COUNT: 5.2 x10E6/uL
  HEMOGLOBIN: 13.4 G/DL
  LEUKOCYTE COUNT: 16.7 x10E3/uL
  LYMPHOCYTE: 86.33%
  MEAN CORPUSCULAR HEMOGLOBIN: 25.73 pg
  MEAN CORPUSCULAR HEMOGLOBIN CONCENTRATION: 40.6 G/DL
  MEAN CORPUSCULAR VOLUME: 63.43 fL
  MONOCYTE: 0.33%
  NEUTROPHIL: 12.67%
  NUCLEATED RED BLOOD CELLS: 0.33 /100WBC
  PLATELET COUNT: 1182.33 x10E3/uL
  ALANINE AMINOTRANSFERASE: 83.67 u/L
  ALBUMIN: 3.93 G/DL
  ALKALINE PHOSPHATASE: 534.33 u/L
  ASPARTATE AMINOTRANSFERASE: 87 u/L
  BLOOD UREA NITROGEN: 11 mg/dL
  CARBON DIOXIDE: 27.67 mmol/L
  CHLORIDE: 99.67 MEQ/L
  CHOLESTEROL: 58 mg/dL
  CREATINE PHOSPHOKINASE: 599.67 u/L
  CREATININE: 0.18 mg/dL
  GLUCOSE: 155.67 mg/dL
  LACTATE DEHYDROGENASE: 259.33 u/L
  LIPASE: 10.33 u/L
  PHOSPHORUS: 10.97 mg/dL
  POTASSIUM: 6.4 MEQ/L
  SODIUM: 139.6 MEQ/L
  TOTAL BILIRUBIN: 0.27 mg/dL
  URIC ACID: 1.33 mg/dL
[4]
  ABSOLUTE BASOPHIL: 0 CELLS/uL
  ABSOLUTE EOSINOPHIL: 58.67 CELLS/uL
  ABSOLUTE LYMPHOCYTE: 15278 CELLS/uL
  ABSOLUTE SEGMENTED NEUTROPHIL: 1476.33 CELLS/uL
  BASOPHIL: 0%
  EOSINOPHIL: 0.33%
  ERYTHROCYTE COUNT: 6 x10E6/uL
  HEMOGLOBIN: 14.33 G/DL
  LEUKOCYTE COUNT: 16.87 x10E3/uL
  LYMPHOCYTE: 90.67%
  MEAN CORPUSCULAR HEMOGLOBIN: 23.93 pg
  MEAN CORPUSCULAR HEMOGLOBIN CONCENTRATION: 39.6 G/DL
  MEAN CORPUSCULAR VOLUME: 60.4 fL
  MONOCYTE: 0.33%
  NEUTROPHIL: 8.67%
  NUCLEATED RED BLOOD CELLS: 0 /100WBC
  PLATELET COUNT: 1128.33 x10E3/uL
  ALANINE AMINOTRANSFERASE: 55.67 u/L
  ALBUMIN: 4.37 G/DL
  ALKALINE PHOSPHATASE: 404.67 u/L
  ASPARTATE AMINOTRANSFERASE: 96.33 u/L
  BLOOD UREA NITROGEN: 20.33 mg/dL
  CARBON DIOXIDE: 31 mmol/L
  CHLORIDE: 101.67 MEQ/L
  CHOLESTEROL: 55.33 mg/dL
  CREATINE PHOSPHOKINASE: 902 u/L
  CREATININE: 0.25 mg/dL
  GLUCOSE: 169 mg/dL
  LACTATE DEHYDROGENASE: 213.67 u/L
  LIPASE: 10 u/L
  PHOSPHORUS: 10.3 mg/dL
  POTASSIUM: 5.85 MEQ/L
  SODIUM: 142.7 MEQ/L
  TOTAL BILIRUBIN: 0.27 mg/dL
  URIC ACID: 1.8 mg/dL
